Entries after “also recorded” stand apart in the source; their conditions may differ. Like-named read-outs stand apart in the source and are kept apart here. Bridge positions count the residues as written; N and C are the ends. Ends that are not written are not given here.
How the values were obtained:
MC1R [1] = settings: cited from earlier work
hMC1R [2] = target: T1, hMC1R (Homo sapiens, UniProt Q01726); settings: transiently transfected HEK293 cells, Eu-NDP-MSH, 2 h incubation; cited from earlier work
T1 sequence (Q01726 whole entry): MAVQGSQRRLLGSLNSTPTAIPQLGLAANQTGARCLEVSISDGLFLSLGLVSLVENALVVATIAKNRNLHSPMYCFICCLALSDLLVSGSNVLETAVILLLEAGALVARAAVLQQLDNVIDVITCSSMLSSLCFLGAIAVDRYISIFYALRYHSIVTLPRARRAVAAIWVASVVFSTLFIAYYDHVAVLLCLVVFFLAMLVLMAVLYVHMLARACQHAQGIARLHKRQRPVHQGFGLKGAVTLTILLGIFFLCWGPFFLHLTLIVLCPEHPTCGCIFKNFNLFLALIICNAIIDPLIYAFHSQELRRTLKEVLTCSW

MC1R [3] = settings: primary melanocytes, cited from earlier work
male Wistar rats [4] = settings: ad libitum; adult male Wistar rats; up to 2 nmol; cited from earlier work
hMC1R [5] = target: T1, hMC1R; assay: cAMP AlphaScreen agonist assay, hMC1R; settings: hMC1R; up to 100 μM; HEK293 cells, cAMP
male Wistar rats [6] = settings: 7 μg (1.2 nmol) ICV at the onset of a 24 h fast, vs vehicle; cited from earlier work
hMC1R [7] = target: T1, hMC1R; settings: human MC1R; HEK293 cells; cited from earlier work
mMC5R = mMC5R (Mus musculus, UniProt P41149); assay: cAMP AlphaScreen agonist assay, mMC5R; settings: mMC5R; up to 100 μM; HEK293 cells, cAMP
mMC5R, sequence (P41149 whole entry): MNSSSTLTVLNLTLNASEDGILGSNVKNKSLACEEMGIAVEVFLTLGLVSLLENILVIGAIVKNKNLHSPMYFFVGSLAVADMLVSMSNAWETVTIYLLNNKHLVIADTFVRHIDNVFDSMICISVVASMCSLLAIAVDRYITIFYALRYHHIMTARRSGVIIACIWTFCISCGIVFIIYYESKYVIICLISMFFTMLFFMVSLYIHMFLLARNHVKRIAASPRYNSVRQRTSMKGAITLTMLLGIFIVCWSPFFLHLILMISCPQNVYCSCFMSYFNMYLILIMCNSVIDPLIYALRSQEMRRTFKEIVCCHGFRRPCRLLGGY

MC1R [8] = settings: B16 cells, cited from earlier work
hMC4R [9] = target: T2, hMC4R (Homo sapiens, UniProt P32245); assay: cAMP AlphaScreen agonist assay, hMC4R; settings: hMC4R; up to 100 μM; HEK293 cells, cAMP
T2 sequence (P32245 whole entry): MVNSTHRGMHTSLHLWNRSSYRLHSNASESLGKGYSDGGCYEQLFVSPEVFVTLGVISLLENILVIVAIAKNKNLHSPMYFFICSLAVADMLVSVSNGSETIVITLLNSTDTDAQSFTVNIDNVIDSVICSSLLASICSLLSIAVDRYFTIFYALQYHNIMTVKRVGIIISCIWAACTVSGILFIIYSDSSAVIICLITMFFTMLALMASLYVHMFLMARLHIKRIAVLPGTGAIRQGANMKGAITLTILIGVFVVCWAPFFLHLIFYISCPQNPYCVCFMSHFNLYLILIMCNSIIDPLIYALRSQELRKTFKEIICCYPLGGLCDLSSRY

hMC4R [10] = target: T2, hMC4R; settings: transiently transfected HEK293 cells, Eu-NDP-MSH, 2 h incubation; cited from earlier work
hMC4R [11] = target: T2, hMC4R; assay: Competitive displacement binding, [125I]-NDP-MSH, hMC4R; settings: 100 μM, stably expressing HEK293 cells, 1 h incubation
mMC1R = mMC1R (Mus musculus, UniProt Q01727); assay: cAMP AlphaScreen agonist assay, mMC1R; settings: mMC1R; up to 100 μM; HEK293 cells, cAMP
mMC1R, sequence (Q01727 whole entry): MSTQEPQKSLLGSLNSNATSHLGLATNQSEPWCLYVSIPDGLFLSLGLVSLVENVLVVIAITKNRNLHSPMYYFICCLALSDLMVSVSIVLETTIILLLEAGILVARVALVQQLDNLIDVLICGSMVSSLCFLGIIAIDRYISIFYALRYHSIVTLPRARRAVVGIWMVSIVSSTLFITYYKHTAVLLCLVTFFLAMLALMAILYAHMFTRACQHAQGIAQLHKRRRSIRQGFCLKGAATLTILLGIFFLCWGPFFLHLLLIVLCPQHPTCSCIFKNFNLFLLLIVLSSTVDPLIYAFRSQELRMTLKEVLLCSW

Agonist efficacy (in words) (hMC1R [5]): Full agonist activity
Agonist efficacy (in words) (mMC5R): Full agonist activity
Agonist efficacy (in words) (hMC4R [9]): Full agonist activity
Displacement of radiolabeled NDP-MSH at 100 μM (hMC4R [11]): 50%
Agonist efficacy (in words) (mMC1R): Full agonist activity
Sequence: GIINTLQKYYCRVRGGRCAVLSCLPKEEQIGKCSTRGRKCCRRKK (disulfide 11-40, 18-33, 23-41) [hBD3]
Effect on NDP-MSH induction of cAMP (MC1R [1]; HEK293 cells expressing the MC1R, 100 nM): lower the agonist induction of cAMP
cAMP response vs maximal response of 1 nM NDP-MSH (MC1R [1]; HEK293 cells expressing the MC1R, 300 nM): lower than the maximal response of 1 nM NDP-MSH
cAMP levels (MC1R [1]; HEK293 cells, 100 and 300 nM): dose dependent increase in cAMP levels
Binding affinity (hMC1R [2]): 42 nM
Effect on α-MSH induction of cAMP (MC1R [3]; 100 nM): lower the agonist induction of cAMP
cAMP signal (MC1R [3]; up to 100 nM): no cAMP signal
Food intake or body weight change (male Wistar rats [4]): does not result in a statistical change in food intake or body weight change
Body weight (male Wistar rats [6]): decreased weight gain; also recorded: slower return to pre-fast weight
Food intake (male Wistar rats [6]): decrease food intake; also recorded: significant decreases in food intake; also recorded: consumed less food
Binding affinity (hMC1R [7]): 13.8 nM
Effect on NDP-MSH induction of cAMP (MC1R [8]; 100 nM): lower the agonist induction of cAMP
cAMP signal (MC1R [8]; up to 100 nM): no cAMP signal
Binding affinity (hMC4R [10]): 110 nM
